Patent US20060223846A1, “Aza-bridged-bicyclic amino acid derivatives as alpha4 integrin antagonists” (priority 2005, published 2006)
Read-outs that look alike come from different tables or passages of the source.

Legend:
[1] = molecular target: T1, human α4β7 (Homo sapiens, UniProt P13612+P26010); assay: α4β7-K562 Cell Adhesion Assay (α4β7 Mediated Adhesion/VCAM-1); format: cell-based
T1 construct: expressed in transfected cells
T1 sequence (P13612 34-1032): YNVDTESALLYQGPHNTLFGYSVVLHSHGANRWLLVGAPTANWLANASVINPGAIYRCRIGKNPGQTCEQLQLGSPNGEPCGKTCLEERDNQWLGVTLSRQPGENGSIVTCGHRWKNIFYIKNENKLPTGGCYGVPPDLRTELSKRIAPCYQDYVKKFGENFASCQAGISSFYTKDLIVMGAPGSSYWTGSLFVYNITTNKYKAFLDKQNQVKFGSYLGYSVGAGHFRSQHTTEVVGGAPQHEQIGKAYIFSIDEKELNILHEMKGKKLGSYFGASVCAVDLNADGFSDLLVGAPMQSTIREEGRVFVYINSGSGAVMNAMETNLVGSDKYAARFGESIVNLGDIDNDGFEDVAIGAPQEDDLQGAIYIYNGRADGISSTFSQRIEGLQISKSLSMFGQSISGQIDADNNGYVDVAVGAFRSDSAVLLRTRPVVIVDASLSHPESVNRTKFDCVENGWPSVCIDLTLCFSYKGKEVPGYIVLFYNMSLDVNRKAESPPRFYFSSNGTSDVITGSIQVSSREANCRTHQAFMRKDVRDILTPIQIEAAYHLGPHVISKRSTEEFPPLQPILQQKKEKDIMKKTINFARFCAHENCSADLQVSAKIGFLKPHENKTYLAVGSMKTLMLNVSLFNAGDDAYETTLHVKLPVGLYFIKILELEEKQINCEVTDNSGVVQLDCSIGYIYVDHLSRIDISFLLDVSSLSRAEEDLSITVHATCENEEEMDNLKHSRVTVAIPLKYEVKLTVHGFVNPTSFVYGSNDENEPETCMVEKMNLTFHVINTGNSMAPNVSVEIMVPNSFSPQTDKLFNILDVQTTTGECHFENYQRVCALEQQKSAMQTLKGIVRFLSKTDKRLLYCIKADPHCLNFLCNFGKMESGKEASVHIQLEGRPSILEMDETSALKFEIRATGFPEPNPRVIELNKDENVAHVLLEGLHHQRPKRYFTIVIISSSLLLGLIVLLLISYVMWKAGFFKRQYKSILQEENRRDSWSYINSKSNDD
T1 sequence (P26010 20-798): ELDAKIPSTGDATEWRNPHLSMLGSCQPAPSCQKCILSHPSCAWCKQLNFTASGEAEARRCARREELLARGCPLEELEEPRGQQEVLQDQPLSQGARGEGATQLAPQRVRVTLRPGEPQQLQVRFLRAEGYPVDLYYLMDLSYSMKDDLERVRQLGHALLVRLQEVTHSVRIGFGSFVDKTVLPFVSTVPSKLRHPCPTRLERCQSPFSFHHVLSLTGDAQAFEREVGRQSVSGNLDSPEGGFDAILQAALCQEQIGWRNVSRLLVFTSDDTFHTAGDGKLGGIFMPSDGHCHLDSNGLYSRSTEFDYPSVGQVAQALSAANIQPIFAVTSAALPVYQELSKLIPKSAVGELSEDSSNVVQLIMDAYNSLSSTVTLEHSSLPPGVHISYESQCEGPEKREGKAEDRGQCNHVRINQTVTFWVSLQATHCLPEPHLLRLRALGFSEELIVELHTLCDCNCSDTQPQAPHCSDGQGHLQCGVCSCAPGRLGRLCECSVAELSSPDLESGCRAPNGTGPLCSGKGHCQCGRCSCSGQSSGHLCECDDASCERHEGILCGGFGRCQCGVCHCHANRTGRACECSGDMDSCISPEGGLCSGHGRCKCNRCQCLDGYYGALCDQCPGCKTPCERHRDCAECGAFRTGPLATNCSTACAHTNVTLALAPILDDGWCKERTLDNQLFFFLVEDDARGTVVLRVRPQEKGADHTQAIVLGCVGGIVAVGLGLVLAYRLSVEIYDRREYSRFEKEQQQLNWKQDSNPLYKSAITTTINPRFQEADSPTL
Procedure: (§1) α4β7-K562 Cell Adhesion Assay (α4β7 Mediated Adhesion/VCAM-1) Immulon 96 well plates (Dynex) were coated with 100 μL recombinant hVCAM-1 at 4.0 μg/mL in 0.05 M NaCO3 buffer pH 9.0 overnight at 4° C. (R&D System). Plates were washed 3 times in PBS with 1% BSA and blocked for 1 h @ room temperature in this buffer. PBS was removed and compounds to be tested (50 μL) were added at 2× concentration. A stable cell line of K562 cells expressing human α4β7, (50 μL at 2×10^6/mL) labeled with 5 μM Calcein AM (Molecular Probes) for 1 h at 37° C., were added to each well and allowed to adhere for 1 h at room temperature. Plates were washed 3× in PBS+1% BSA and cells were lysed for 15 minutes in 100 μL of 1 M Tris pH 8.0 with 1% SDS. The plate was read at 485 nm excitation and 530 nm emission.

[2] = tested on: circulating white blood cells (leukocytes); assay: Leukocytosis Procedure; format: in vivo, Balb/c mice; settings: bled 1-1.5 hours after administration
Description: Background: Leukocytosis is the increase in circulating white blood cells (leukocytes). Luekocytosis can be caused by preventing leukocyte binding to integrin counter-receptor adhesion molecules expressed on high endothelial venules. This cell adhesion occurs between immunoglobulin superfamily molecules and integrins. Relevant examples of these paired interactions include […] Adhesion Molecule-1 and αLβ2 integrin, Vascular Cell Adhesion Molecule-1 and α4β1 integrin, and Mucosal Addressin Cell Adhesion Molecule-1 and α4β7 integrin, respectively.
In this model, a compound that antagonizes these leukocyte-endothelial interactions will cause an increase in circulating leukocytes, defined as leukocytosis, as measured at 1-1.5 hours post-administration. This leukocytosis is indicative that normal lymphocyte or leukocyte emigration from the peripheral circulation was prevented. Similar emigration of cells out of the circulation into inflamed tissues is responsible for the progression and maintenance of the inflammatory state. Leukocytosis is an indication that lymphocyte and leukocyte extravasation is prevented, and is predictive of general anti-inflammatory activity.
1 week prior to being tested, 7-10 week old female Balb/c mice, n=8 per group, were bled and randomized according to leukocyte counts. One week later, the mice were administered a test compound orally or subcutaneously and then bled 1-1.5 hours after drug administration, approximately one hour after the peak blood concentration of the compound had occurred. Whole blood, 250-350 microliters, was collected from each mouse into potassium-EDTA serum collection tubes (Becton-Dickenson) and mixed to prevent clotting.
Cell counts and differential counts on the whole blood preparation were performed using an Advia 120 Hematology System (Bayer Diagnostics). Cell counts as total leukocytes and as total lympohcytes were made and compared to counts made from mice dosed with vehicle only. Data were reported as percent of vehicle control for lymphocyte counts and total leukocyte counts. Statistical analyses were performed using ANOVA with Dunnet's multiple comparison test

[3] = molecular target: T2, α4β1 (Homo sapiens, UniProt P05556+P13612); assay: Ramos Cell Adhesion Assay (α4β1 Mediated Adhesion/VCAM-1); format: cell-based; parameters: Ramos cells, (50 μL at 2×10^6/mL) labeled with 5 μM Calcein AM; endogenous in cells; host or cells: Ramos cells
Procedure: as §1, with “Ramos” for “α4β7-K562”, “α4β1” for “(α4β7”, “[…]” for “96”, “Systems).” for “System).”, “Ramos cells,” for “A stable cell line of K562 cells expressing human α4β7,”

[4] = molecular target: T2, α4β1; settings: literature (Tamraz et al.); cited from earlier work
[5] = tested on: oxazolone-induced contact hypersensitivity; settings: 6 mg/kg, sc; mouse; cited from earlier work
[6] = tested on: heterotopic heart allograft; settings: hyperlipidemic rabbit; cited from earlier work

T2 sequence (P05556 21-798, one chain of several): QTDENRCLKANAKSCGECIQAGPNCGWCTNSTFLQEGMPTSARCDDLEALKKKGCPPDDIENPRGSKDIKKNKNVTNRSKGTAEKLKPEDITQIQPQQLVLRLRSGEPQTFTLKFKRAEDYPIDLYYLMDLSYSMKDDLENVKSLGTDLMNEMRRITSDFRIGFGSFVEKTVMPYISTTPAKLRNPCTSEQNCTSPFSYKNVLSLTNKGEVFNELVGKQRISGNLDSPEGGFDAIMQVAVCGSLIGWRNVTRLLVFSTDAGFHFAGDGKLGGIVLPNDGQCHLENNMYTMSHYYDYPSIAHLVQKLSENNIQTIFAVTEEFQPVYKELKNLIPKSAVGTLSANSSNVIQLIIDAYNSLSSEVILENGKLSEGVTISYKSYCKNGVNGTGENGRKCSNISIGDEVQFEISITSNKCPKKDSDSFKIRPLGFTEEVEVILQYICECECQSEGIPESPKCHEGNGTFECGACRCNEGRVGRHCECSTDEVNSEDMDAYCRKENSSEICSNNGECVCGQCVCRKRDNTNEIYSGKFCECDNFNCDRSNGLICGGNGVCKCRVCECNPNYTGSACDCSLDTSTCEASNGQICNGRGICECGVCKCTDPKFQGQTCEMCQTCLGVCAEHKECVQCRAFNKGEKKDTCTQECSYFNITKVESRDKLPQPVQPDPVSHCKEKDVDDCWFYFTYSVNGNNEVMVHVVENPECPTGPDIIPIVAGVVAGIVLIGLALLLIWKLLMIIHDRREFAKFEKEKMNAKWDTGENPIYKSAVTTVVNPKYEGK

Molecule: O=C(Nc1ccc(CC(NC(=O)C2C3CCC(CC3)N2C(=O)CCc2ccccc2)C(=O)O)cc1)c1c(Cl)cncc1Cl (stereo not shown) [Cpd 39]
- IC50 ([1]; K562 cells expressing human α4β7 on recombinant hVCAM-1, read-out: α4β7 IC50): 7 nM
- IC50 ([1]; repeated in leukocytosis table, unit inferred, read-out: α4β7): 7 nM
- Lymphocyte Counts % of Vehicle Control ([2]; 3 mg/kg sc): 205.2 % of Vehicle Control
- Total Leukocyte Counts % of Vehicle Control ([2]; 3 mg/kg sc): 175.1 % of Vehicle Control
- Lymphocyte Counts % of Vehicle Control ([2]; 10 mg/kg sc): 150.3 % of Vehicle Control
- Total Leukocyte Counts % of Vehicle Control ([2]; 10 mg/kg sc): 134.3 % of Vehicle Control
- Lymphocyte Counts % of Vehicle Control ([2]; 30 mg/kg sc): 253.9 % of Vehicle Control
- Total Leukocyte Counts % of Vehicle Control ([2]; 30 mg/kg sc): 212.2 % of Vehicle Control
- IC50 ([3]; Ramos cells on recombinant hVCAM-1, read-out: α4β1 IC50): 0.9 nM
- IC50 ([3]; repeated in leukocytosis table, unit inferred, read-out: α4β1): 0.9 nM

Molecule: Phenylacetyl-Leu-Asp-Phe-D-Pro-NH2
- IC50 [4]: 2000 nM
- efficacy in oxazolone-induced contact hypersensitivity [5]: efficacy similar to the α4 antibody PS/2
- efficacy in heart allograft model [6]: effective
